Reference: US10383866B2, “Alkyl dihydroquinoline sulfonamide compounds” (AMGEN INC., priority 2015, dated 2019)

Columns and labels:
HLM in vitro = type: in vitro ADME, human
human Nav1.7 = target: T1, human Nav1.7 (Homo sapiens, UniProt Q15858); assay: Nav 1.7 In Vitro PX Assay (PatchXpress whole cell voltage clamp, partially inactivated state); type: cell-based; details: HEK 293 cells stably transfected with human Nav1.7, holding potential yielding 20 to 50% inactivation, read-out: hNav1.7 PX IC50
T1 construct: expressed in transfected cells; host or cells: HEK 293
T1 sequence (Q15858 whole entry): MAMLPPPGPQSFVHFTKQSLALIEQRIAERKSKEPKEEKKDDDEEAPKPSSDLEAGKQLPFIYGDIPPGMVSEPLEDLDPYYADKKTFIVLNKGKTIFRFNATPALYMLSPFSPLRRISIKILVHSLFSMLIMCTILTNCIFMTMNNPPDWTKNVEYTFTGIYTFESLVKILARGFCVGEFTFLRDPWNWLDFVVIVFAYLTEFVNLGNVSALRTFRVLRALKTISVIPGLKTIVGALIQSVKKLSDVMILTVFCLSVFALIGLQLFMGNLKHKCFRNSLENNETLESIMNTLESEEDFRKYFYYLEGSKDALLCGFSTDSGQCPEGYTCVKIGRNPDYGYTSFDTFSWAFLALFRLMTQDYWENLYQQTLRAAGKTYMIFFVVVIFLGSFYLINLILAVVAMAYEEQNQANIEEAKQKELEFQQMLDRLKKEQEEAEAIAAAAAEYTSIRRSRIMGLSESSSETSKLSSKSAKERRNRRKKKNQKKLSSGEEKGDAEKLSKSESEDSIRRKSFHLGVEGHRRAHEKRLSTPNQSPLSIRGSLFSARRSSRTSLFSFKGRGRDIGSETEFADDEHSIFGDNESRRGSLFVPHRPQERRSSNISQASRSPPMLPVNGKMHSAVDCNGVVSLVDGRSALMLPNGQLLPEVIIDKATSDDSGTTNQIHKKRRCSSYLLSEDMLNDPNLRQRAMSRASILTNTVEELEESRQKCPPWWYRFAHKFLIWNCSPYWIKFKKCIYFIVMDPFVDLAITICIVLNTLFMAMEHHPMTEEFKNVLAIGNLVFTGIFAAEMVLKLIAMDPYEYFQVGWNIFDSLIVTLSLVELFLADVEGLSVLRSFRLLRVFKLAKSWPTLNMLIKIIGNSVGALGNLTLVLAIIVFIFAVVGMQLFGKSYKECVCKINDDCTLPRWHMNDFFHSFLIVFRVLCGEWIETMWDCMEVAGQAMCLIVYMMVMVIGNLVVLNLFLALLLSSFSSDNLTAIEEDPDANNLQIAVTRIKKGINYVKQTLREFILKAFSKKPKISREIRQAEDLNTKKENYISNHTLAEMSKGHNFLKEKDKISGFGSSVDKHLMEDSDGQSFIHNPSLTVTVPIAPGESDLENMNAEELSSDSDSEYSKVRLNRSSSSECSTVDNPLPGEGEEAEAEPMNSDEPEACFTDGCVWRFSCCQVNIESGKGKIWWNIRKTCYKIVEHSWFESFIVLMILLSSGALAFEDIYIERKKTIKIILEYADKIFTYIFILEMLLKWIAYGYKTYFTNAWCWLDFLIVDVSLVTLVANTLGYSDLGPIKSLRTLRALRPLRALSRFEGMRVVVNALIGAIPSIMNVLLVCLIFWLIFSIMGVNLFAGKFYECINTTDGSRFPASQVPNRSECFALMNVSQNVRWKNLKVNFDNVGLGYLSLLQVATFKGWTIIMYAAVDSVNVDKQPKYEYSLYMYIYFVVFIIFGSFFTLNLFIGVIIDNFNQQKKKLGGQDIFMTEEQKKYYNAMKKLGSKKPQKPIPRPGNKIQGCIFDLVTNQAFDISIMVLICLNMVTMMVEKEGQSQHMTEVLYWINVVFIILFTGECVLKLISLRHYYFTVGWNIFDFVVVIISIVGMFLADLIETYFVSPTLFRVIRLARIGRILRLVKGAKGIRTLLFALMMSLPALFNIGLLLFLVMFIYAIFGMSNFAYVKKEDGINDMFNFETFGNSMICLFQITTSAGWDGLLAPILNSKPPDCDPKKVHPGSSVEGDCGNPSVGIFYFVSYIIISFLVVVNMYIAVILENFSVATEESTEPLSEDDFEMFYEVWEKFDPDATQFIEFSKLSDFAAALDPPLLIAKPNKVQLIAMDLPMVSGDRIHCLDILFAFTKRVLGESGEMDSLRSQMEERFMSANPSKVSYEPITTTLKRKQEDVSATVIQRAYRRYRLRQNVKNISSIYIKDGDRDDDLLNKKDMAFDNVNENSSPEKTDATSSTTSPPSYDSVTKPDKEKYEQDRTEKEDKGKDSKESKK
Method: Nav 1.7 In Vitro PX Assay
HEK 293 cells stably transfected with human Nav1.7 were recorded in whole cell voltage clamp mode with the PatchXpress automated electrophysiology system (Molecular Devices, LLC, Sunnyvale, Calif.). Compound effects were measured on a partially inactivated state of the sodium channel Cells were clamped to a holding potential yielding 20 to 50% inactivation. To elicit sodium current, channels were activated by pulsing to −10 mV for 20 msec. This voltage protocol was repeated at a rate of 0.1 Hz throughout the experiment. A single concentration of test compound was applied to cells for a duration of 3 minutes. Peak sodium current was measured at the end of the compound addition period to determine percent inhibition. Three to five cells were tested per concentration, and IC50 curves were fitted to percent inhibition as a function of concentration.

hNav1.7 = target: T2, hNav1.7 (Homo sapiens, UniProt Q15858); assay: Nav 1.7 IWQ In Vitro Assay (IonWorks Quattro population patch-clamp); type: cell-based; details: HEK 293 cells stably transfected with Nav 1.7, 26th pulse to -20 mV
T2 construct: expressed in transfected cells; host or cells: HEK 293
T2 sequence (Q15858 whole entry): as above
Method: Nav 1.7 or Nav 1.5 IWQ In Vitro Assay
HEK 293 Cells stably transfected with either Nav 1.7 or Nav 1.5 were recorded in population patch-clamp mode with the IonWorks® Quattro automated electrophysiology system in accordance with the manufacturer's specifications (Molecular Devices, LLC, Sunnyvale, Calif.). Sodium channel currents were measured in response to a train of depolarizations that induced successively greater inactivation.
Cells were held at −110 mV for three seconds (Nav 1.7) or half a second (Nav 1.5) from a holding voltage of −15 mV, then put through a series of 26 pulses of 150 msec duration to −20 mV at a frequency of 5 Hz. Cells were then left unclamped for a period of 3 to 8 minutes while a single concentration of test compound was added. Cells were then reclamped and put through the same voltage protocol. Current at the end of the 26th pulse to −20 mV was subtracted from the peak current evoked by the 26th pulse to −20 mV to correct for leak current. Percent block was calculated for each concentration in duplicate, and IC50 curves were fitted to percent block as a function of concentration.

human PXR = target: T3, human PXR (Homo sapiens, UniProt O75469); assay: Human PXR @ 2 uM POC; type: in vitro ADME
T3 sequence (O75469 1-434): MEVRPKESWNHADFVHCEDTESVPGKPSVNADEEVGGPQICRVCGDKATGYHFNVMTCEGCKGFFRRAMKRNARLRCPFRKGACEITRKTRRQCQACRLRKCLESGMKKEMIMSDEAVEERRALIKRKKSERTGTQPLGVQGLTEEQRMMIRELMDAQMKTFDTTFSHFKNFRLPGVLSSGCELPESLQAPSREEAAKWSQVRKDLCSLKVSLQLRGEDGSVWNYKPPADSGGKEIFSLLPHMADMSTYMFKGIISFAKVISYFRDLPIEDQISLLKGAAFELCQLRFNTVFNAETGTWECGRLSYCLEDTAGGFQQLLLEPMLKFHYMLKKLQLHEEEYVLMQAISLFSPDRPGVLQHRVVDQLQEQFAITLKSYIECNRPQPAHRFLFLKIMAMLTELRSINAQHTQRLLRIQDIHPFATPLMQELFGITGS

HLM in vitro (HLM in vitro)	IC50 (human Nav1.7) [nM]	IC50 (hNav1.7) [nM]	human PXR @ 2 uM POC S (human PXR) [%]	SMILES
<14.0 µL/min/mg	80	5	2.38	COc1cc(CCC(F)(F)F)c(Cl)cc1-n1c(=O)ccc2cc(S(=O)(=O)Nc3ccon3)ccc21 (atropisomer, axis not shown; (P)) [Example 2, (P)-1-(5-chloro-2-methoxy-4-(3,3,3-trifluoropropyl)phenyl)-N-(isoxazol-3-yl)-2-oxo-1,2-dihydroquinoline-6-sulfonamide]
<14.0 µL/min/mg	980	2	3.20	COc1cc(CCC(F)(F)F)c(F)cc1-n1c(=O)ccc2cc(S(=O)(=O)Nc3cccnn3)ccc21 (atropisomer, axis not shown; (P)) [Example 3, (P)-1-(5-fluoro-2-methoxy-4-(3,3,3-trifluoropropyl)phenyl)-2-oxo-N-(Pyridazin-3-yl)-1,2-dihydroquinoline-6-sulfonamide]
<14.0 µL/min/mg	870	2	1.87	COc1cc(CCCC(F)(F)F)c(F)cc1-n1c(=O)ccc2cc(S(=O)(=O)Nc3ccon3)ccc21 (atropisomer, axis not shown; (P)) [Example 5, (P)-1-(5-fluoro-2-methoxy-4-(4,4,4-trifluorobutyl)phenyl)-N-(isoxazol-3-yl)-2-oxo-1,2-dihydroquinoline-6-sulfonamide]
<14.0 µL/min/mg	720	12	−0.04	COc1cc(C[C@@H](C)C(F)(F)F)c(F)cc1-n1c(=O)ccc2cc(S(=O)(=O)Nc3ccon3)ccc21 (racemic) [Example 4, (P)-1-(5-fluoro-2-methoxy-4-(3,3,3-trifluoro-2-methylpropyl)phenyl)-N-(isoxazol-3-yl)-2-oxo-1,2-dihydroquinoline-6-sulfonamide]
<14.0 µL/min/mg	320	1.78	−1.12	COc1cc(CC(F)(F)F)c(F)cc1-n1c(=O)ccc2cc(S(=O)(=O)Nc3ccon3)ccc21 (racemic) [Example 6A, 1-(5-fluoro-2-methoxy-4-(2,2,2-trifluoroethyl)phenyl)-N-(isoxazol-3-yl)-2-oxo-1,2-dihydroquinoline-6-sulfonamide]
<14.0 [2] μL/(min · mg)	320	2	0.22	COc1cc(CCC(F)(F)F)c(F)cc1-n1c(=O)ccc2cc(S(=O)(=O)Nc3ccon3)ccc21 (atropisomer, axis not shown; (P)) [Example 1, (P)-1-(5-fluoro-2-methoxy-4-(3,3,3-trifluoropropyl)phenyl)-N-(isoxazol-3-yl)-2-oxo-1,2-dihydroquinoline-6-sulfonamide]
<14.0 µL/min/mg	84.4	5.3	−2.42	COc1cc(CC(F)(F)F)c(F)cc1-n1c(=O)ccc2cc(S(=O)(=O)Nc3ccon3)ccc21 (atropisomer, axis not shown; (P)) [Example 6B, (P)-1-(5-fluoro-2-methoxy-4-(2,2,2-trifluoroethyl)phenyl)-N-(isoxazol-3-yl)-2-oxo-1,2-dihydroquinoline-6-sulfonamide]
